ChEMBL document CHEMBL1156406, “New Xenia diterpenoids from the Indonesian soft coral Xenia sp” (J Nat Prod, 2002)

How the values were obtained:
Assay type in all cases: functional, cell-based
SK-MEL-28 = assay: Cytotoxicity against human SK-MEL-28 cells
P388 = assay: Cytotoxicity against mouse P388 cells
HT-29 = assay: Cytotoxicity against human HT-29 cells
A549 = assay: Cytotoxicity against human A549 cells

Measured: IC50

C=C1CC[C@@H]2/C(=C/C=C/C(C)(C)O)C(=O)OC[C@H]2C(=C)C[C@@H](O)[C@@H]1O
> 1 µg/mL: SK-MEL-28 | P388 | HT-29 | A549

C=C1C[C@@H](O)/C=C(\C)CC[C@@H]2/C(=C/C=C/C(C)(C)O)C(=O)OC[C@@H]12 [ISOXENIOLIDE A]
> 1 µg/mL: SK-MEL-28 | P388 | HT-29 | A549

C=C1C[C@@H](O)C2OC2(C)CC[C@@H]2/C(=C/C=C/C(C)(C)O)C(=O)OC[C@@H]12 (stereo partly specified)
> 1 µg/mL: SK-MEL-28 | P388 | HT-29 | A549

C=C1CC[C@@H]2/C(=C/C=C/C(C)(C)O)C(=O)OC[C@H]2C(=C)CC[C@@H]1O
> 1 µg/mL: SK-MEL-28 | P388 | HT-29 | A549
